Tests used:
LCMV NP-exo = biological target: T1, LCMV NP-exo (Lymphocytic choriomeningitis virus (strain Armstrong), UniProt P09992)
T1 construct: gene N

MOPV NP-exo = biological target: T2, MOPV NP-exo (Mammarenavirus mopeiaense, UniProt P19239); conditions: 5 mM MnCl2, pH 8.0, 310 K, 5 min, 0.25 µM enzyme, 1.5 µM HP4 RNA; Mn2+-dependent; acts by metal-ion chelation
T2 construct: gene N
T2 sequence (P19239 365-570 limits assumed): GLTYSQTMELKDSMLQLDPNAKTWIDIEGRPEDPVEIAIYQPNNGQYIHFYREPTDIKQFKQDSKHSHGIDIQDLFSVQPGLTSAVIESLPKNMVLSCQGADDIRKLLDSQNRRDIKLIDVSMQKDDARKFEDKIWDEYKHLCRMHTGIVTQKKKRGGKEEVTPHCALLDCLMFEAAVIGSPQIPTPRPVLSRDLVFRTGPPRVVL

T1 sequence (P09992 357-558 limits assumed): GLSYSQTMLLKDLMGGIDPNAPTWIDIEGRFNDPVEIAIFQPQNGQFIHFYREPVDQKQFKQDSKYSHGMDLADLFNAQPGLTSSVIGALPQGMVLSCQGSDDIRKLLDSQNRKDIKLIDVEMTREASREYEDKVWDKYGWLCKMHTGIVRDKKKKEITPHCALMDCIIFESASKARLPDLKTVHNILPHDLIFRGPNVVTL

## alendronate
LCMV NP-exo
  IC50: 68.6 ± 4.2 µM
MOPV NP-exo
  IC50: 65.9 ± 1.7 µM
